pIC50: −log10 of the molar value.
What was measured:
H3K56ac [1] = assay: H3K56ac levels in E14 mouse embryonic stem cells, quantitative western blot; assay type: cell-based; settings: E14 mES cells, 24 h; CI-994 40 μM, Panobinostat 30 nM
Procedure: The inventors proceeded to assess their compounds effects on HDAC activity in cells.
To examine the ability of PROTACs 1-4 to reduce HDAC1, 2 and 3 activity in cells they began by measuring H3K56ac using quantitative western blotting (see FIG. 3B).
(§1) HCT116 or mES cells were treated 24 hours after seeding. 24 hours post treatment, cells were harvested, lysed in lysis buffer (50 mM Tris-HCl, 150 mM NaCl, 0.5% NP-40, 0.5% Triton X-100) with protease inhibitor (Sigma, P8340), then incubated on ice for 30 minutes, before being centrifuged (18,000 ref, 15 minutes, 4° C.). The supernatant was collected, and protein concentrations quantified via Bradford Assay using Protein Assay Dye Reagent Concentrate (BIO-RAD). For histone extraction, an equal volume of 0.4 N H2SO4 was added to the pellets and the extracts placed at 4° C. overnight. Following overnight incubation, the tubes were centrifuged (18,000 ref, 15 minutes, 4° C.) and then the supernatant (histone extract) collected.
(§2) Western blots were run on NuPAGE™ 4-12% Bis-Tris gels with 20-30 μg of protein or 10 μL of acid-extracted histone loaded per lane, using NuPAGE™ LDS Sample Buffer (4×). PageRuler™ Plus Prestained Ladder was used for size standards. After gel electrophoresis at 140V for 75-90 minutes the separated proteins were transferred onto nitrocellulose membrane at 30V for 60 minutes. The membranes were probed with primary antibodies (listed below) for 60-90 minutes. Blots were developed with complimentary IRDye conjugated secondary antibodies and the bands visualised using the Odyssey Infrared Imaging System. Image processing and band intensity quantification was performed using Image Studio Lite.

[2] = molecular target: LSD1-CoREST-HDAC1 complex (Homo sapiens, UniProt Q13547); assay: fluorescent deacetylase assay with the LSD1-CoREST-HDAC1 complex (Example 2, FIG. 3A); assay type: biochemical
Procedure: The inventors evaluated their preliminary PROTACs in vitro using an established fluorescent deacetylase assay with the LSD1-CoREST-HDAC1 complex. This complex was used as an exemplary HDAC multiprotein complex to determine if such heterobifunctional molecules PROTACs 1-4 can still engage the HDAC enzyme in the context of an intact multiprotein complex.
(§3) Inhibition tests against LSD1-HDAC-CoREST complex were performed using a two-enzyme fluorescence-based HDAC assay. The inhibitor/PROTACs were dissolved at 50 mM in DMSO, then 1:2 serial dilutions performed using HDAC assay buffer (50 mM Tris pH 7.5, 150 mM NaCl) to afford range of concentrations.
(§4) The assays were performed in black 96-well plates with a reaction volume of 50 μL per well. All determinations were performed in triplicate. […] After an incubation of 20 minutes at 37° C. and 150 rpm, deacetylation was stopped by the addition of 50 μL of a developing solution containing trypsin (50 mM Tris pH 7.5, 100 mM NaCl, 10 mg/mL trypsin). […] HDAC Activity was calculated by subtracting the average blank fluorescence from the well fluorescence. Graphpad Prism software was utilised to determine IC50 values.

CoREST = CoREST (Homo sapiens, UniProt Q13547); assay: HDAC inhibition assay, CoREST complex (Table 1, run under different conditions); assay type: biochemical; settings: Table 1 conditions (differ from FIG. 3)
Procedure: as §3, §4

NuRD = NuRD (Homo sapiens, UniProt Q13547); assay: HDAC inhibition assay, NuRD complex (Table 1); assay type: biochemical
MiDAC = MiDAC (Homo sapiens, UniProt Q13547); assay: HDAC inhibition assay, MiDAC complex (Table 1); assay type: biochemical
SMRT = SMRT (Homo sapiens, UniProt O15379); assay: HDAC inhibition assay, SMRT complex (Table 1); assay type: biochemical
HDAC1 [3] = molecular target: T1, HDAC1 (Homo sapiens, UniProt Q13547); assay: HDAC1 degradation in HCT116 cells, quantitative western blot; assay type: cell-based; settings: for Dmax: HCT-116, 24 h, read-out: HDAC1 Degrader (% Degradation)
T1 construct: endogenous in cells; host or cells: HCT116
Procedure: (§5) The compounds were screened at 0.1 μM, 1 μM and 10 μM in a HCT116 cell line. The maximum degradation observed irrespective of the concertation was recorded. The screening of the new compounds was done in 6-well plates, 5 mL media, with 400,000 cells per well to increase throughput.
as §1
(§6) PageRuler™ Plus Prestained Ladder was used for size standards. After gel electrophoresis at 140V for 75-90 minutes the separated proteins were transferred onto nitrocellulose membrane at 30V for 60 minutes. The membranes were probed with primary antibodies (listed below) for 60-90 minutes. Blots were developed with complimentary IRDye conjugated secondary antibodies and the bands visualised using the Odyssey Infrared Imaging System. Image processing and band intensity quantification was performed using Image Studio Lite.

HDAC2 [4] = molecular target: T2, HDAC2 (Homo sapiens, UniProt Q92769); assay: HDAC2 degradation in HCT116 cells, quantitative western blot; assay type: cell-based; settings: for Dmax: HCT-116, 24 h, read-out: HDAC 2 Degrader (% Degradation)
T2 construct: endogenous in cells; host or cells: HCT116
Procedure: as §5, §1, §6

HDAC3 = molecular target: T3, HDAC3 (Homo sapiens, UniProt O15379); assay: HDAC3 degradation in HCT116 cells, quantitative western blot; assay type: cell-based; settings: for Dmax: HCT-116, 24 h, HCT116, screened at 0.1, 1 and 10 μM, maximum degradation irrespective of concentration, read-out: HDAC 3 degrader (% Degradation)
T3 construct: endogenous in cells; host or cells: HCT116
Procedure: as §5, §1, §6

H3K9ac = assay: Histone H3 Lys9 acetylation levels in HCT116 cells; assay type: cell-based, human; settings: HCT116, 24 h, 10 μM
Procedure: Acetylation levels of Histone H3 Lys9 (H3K9ac), another established residue for HDAC activity, were also determined in HCT116 cells after 24 hours treatment with PROTAC 4.
as §1
Western blots were run on NuPAGE™ 4-12% Bis-Tris gels with 20-30 μg of protein or 10 μL of acid-extracted histone loaded per lane, using NuPAGE™ LDS Sample Buffer (4×). PageRuler™ Plus Prestained Ladder was used for size standards. After gel electrophoresis at 140V for 75-90 minutes the separated proteins were transferred onto nitrocellulose membrane at 30V for 60 minutes. […] Image processing and band intensity quantification was performed using Image Studio Lite.

[5] = tested on: HCT116 colon cancer cell line; assay: Cell cycle / cell death by FACS in HCT116 colon cancer cell line; assay type: cell-based, human; settings: HCT116, 48 hours, 10 μM
Procedure: The inventors then investigated the effect of PROTAC 4 on the cell cycle in the colon cancer HCT116 cell line.
[…] Cells were washed in PBS prior to incubation with […] of propidium iodide and RNase A (10 μg/mL) for 30 min at room temperature in the dark. Samples were analysed using the BD FACSCanto II flow cytometer (BD Biosciences) in the PE A channel with BD FACSDiva software.

HDAC1 [6] = molecular target: T1, HDAC1; assay: HDAC1 degradation in HCT116 cells, quantitative western blot; assay type: cell-based; settings: HCT116, 24 h, 10 nM
HDAC2 [7] = molecular target: T2, HDAC2; assay: HDAC2 degradation in HCT116 cells, quantitative western blot; assay type: cell-based; settings: HCT116, 24 h, 10 nM
H3K56Ac [8] = assay: Increase of H3K56Ac (Table 1 screen); assay type: cell-based, human; settings: HCT116 screen; cell line not restated at the table
Procedure: as §5, §1, §2

[9] = HCT116, 24 h, 1 μM, remaining level
[10] = HCT116, screened at 0.1, 1 and 10 μM, maximum degradation irrespective of concentration

T2 sequence (Q92769 whole entry): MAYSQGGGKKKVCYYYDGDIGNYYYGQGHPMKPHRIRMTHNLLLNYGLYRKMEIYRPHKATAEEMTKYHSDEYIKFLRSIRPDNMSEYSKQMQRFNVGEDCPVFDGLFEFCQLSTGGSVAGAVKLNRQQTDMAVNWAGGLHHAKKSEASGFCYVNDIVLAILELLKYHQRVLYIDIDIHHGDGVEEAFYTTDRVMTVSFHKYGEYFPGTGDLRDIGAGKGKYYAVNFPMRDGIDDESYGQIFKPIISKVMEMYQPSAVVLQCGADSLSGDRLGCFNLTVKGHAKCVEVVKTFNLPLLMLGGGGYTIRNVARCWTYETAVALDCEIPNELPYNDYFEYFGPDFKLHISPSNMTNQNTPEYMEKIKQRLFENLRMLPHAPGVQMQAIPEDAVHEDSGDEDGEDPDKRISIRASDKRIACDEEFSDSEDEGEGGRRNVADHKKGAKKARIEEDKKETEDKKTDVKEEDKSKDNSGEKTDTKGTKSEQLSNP
Chain of CoREST (Q13547 whole entry, other chains not shown): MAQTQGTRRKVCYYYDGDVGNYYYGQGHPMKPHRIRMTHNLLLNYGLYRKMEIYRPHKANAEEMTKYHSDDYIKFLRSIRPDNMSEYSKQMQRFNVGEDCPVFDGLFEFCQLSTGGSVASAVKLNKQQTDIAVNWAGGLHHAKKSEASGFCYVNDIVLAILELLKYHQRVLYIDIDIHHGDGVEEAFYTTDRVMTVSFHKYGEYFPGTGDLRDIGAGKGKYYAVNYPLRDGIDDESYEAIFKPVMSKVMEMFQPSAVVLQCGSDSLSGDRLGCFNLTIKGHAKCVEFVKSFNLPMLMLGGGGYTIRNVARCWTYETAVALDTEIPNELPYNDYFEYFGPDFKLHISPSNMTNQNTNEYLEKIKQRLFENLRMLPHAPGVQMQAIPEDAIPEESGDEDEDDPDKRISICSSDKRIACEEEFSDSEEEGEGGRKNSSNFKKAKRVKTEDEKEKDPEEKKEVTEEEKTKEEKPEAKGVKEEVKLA
Chain of CoREST (Q9UKL0 86-485 partner limits assumed, other chains not shown): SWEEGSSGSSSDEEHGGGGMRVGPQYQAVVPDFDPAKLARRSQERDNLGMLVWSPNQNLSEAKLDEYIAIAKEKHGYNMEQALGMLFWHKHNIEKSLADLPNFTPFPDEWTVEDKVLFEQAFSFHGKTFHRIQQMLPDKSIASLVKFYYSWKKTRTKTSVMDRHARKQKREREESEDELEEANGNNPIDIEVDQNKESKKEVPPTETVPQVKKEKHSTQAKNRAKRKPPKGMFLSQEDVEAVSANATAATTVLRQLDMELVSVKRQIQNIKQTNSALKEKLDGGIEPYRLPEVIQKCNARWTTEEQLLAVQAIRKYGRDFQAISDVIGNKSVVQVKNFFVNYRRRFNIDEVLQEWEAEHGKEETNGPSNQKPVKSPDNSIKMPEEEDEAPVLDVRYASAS
T1 sequence (Q13547 whole entry): as the sequence (Q13547 whole entry, other chains not shown) above
T3 sequence (O15379 whole entry): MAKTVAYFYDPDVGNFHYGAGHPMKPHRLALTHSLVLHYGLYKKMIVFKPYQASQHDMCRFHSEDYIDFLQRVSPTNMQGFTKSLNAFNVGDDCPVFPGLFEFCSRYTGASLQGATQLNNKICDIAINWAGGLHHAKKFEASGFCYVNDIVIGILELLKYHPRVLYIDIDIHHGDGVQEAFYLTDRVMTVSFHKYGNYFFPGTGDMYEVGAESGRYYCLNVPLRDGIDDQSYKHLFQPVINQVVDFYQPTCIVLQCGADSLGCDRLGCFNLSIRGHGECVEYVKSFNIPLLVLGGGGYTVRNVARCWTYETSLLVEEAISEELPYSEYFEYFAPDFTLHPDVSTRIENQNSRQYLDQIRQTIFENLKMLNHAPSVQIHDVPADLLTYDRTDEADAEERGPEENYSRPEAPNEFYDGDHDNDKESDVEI
Chain of SMRT (O15379 whole entry): as above
Chain of SMRT (Q9Y618 389-480 partner limits assumed): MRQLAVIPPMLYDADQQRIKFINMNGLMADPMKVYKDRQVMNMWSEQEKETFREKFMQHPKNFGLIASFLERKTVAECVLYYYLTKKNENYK
Chain of MiDAC (Q13547 whole entry): as the sequence (Q13547 whole entry, other chains not shown) above
Chain of MiDAC (Q6PJG2 628-887 partner limits assumed): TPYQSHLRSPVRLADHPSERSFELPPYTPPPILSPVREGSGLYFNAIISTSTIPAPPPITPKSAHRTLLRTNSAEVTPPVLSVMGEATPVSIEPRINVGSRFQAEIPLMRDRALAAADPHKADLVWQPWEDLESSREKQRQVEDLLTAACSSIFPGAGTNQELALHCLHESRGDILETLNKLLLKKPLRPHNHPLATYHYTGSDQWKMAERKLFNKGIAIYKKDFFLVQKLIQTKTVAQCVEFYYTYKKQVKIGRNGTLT
Chain of MiDAC (Q9H147 whole entry partner): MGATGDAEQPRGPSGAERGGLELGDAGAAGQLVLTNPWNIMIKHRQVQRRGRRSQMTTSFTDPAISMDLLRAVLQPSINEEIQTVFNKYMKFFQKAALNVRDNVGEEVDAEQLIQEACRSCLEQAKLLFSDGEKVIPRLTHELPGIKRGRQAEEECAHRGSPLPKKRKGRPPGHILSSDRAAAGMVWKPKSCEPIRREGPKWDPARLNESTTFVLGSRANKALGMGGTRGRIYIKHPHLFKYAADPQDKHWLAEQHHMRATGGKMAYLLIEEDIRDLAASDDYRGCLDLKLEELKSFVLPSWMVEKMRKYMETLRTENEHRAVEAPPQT
Chain of NuRD (Q13547 whole entry): as the sequence (Q13547 whole entry, other chains not shown) above
Chain of NuRD (Q13330 162-546 partner limits assumed): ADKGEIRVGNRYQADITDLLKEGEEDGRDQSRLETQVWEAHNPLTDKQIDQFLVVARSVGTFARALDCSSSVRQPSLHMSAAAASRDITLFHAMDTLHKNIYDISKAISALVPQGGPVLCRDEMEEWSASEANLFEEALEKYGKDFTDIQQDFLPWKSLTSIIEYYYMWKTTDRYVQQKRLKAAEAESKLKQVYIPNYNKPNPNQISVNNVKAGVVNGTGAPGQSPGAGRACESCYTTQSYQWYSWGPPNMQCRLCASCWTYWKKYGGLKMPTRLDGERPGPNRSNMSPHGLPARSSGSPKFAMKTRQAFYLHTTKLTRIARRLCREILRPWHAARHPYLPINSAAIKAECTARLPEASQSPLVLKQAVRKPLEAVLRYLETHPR
Chain of NuRD (Q09028 whole entry partner): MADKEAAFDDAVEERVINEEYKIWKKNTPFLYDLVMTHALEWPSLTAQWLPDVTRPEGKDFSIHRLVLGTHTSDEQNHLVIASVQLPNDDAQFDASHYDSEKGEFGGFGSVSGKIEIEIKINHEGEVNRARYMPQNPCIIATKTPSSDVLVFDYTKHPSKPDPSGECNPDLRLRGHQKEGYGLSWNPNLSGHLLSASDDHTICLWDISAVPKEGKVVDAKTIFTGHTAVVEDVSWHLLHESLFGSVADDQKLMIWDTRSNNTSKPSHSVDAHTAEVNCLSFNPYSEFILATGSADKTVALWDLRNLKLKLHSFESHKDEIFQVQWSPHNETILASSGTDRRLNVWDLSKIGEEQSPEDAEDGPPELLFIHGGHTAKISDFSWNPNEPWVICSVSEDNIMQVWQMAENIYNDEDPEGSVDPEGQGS
Chain of LSD1-CoREST-HDAC1 complex (Q13547 whole entry, other chains not shown): as the sequence (Q13547 whole entry, other chains not shown) above
Chain of LSD1-CoREST-HDAC1 complex (Q9UKL0 86-485 partner limits assumed, other chains not shown): as the sequence (Q9UKL0 86-485 partner limits assumed, other chains not shown) above

| Compound | H3K56 acetylation level (H3K56ac [1]) | pIC50 (CoREST) | pIC50 (SMRT) | Dmax (HDAC1 [3]; [10]) [%] | Dmax (HDAC2 [4]; [10]) [%] | Dmax (HDAC3) [%] | Increase H3K56Ac (Y/N/partial) (H3K56Ac [8]) | further results |
| --- | --- | --- | --- | --- | --- | --- | --- | --- |
| CC(=O)Nc1ccc(C(=O)Nc2ccccc2N)cc1 [CI-994, 4-acetamido-N-(2-aminophenyl)benzamide, reference compound] | increased |  |  |  |  |  |  |  |
| Cc1ncsc1-c1ccc(CNC(=O)[C@@H]2C[C@@H](O)CN2C(=O)[C@@H](NC(=O)CCCCCCCCCCC(=O)Nc2ccc(C(=O)Nc3ccccc3N)cc2)C(C)(C)C)cc1 [PROTAC4, N1-(4-((2-aminophenyl)carbamoyl)phenyl)-N12-((S)-1-((2S,4R)-4-hydroxy-2-((4-(4-methylthiazol-5-yl)benzyl)carbamoyl)pyrrolidin-1-yl)-3,3-dimethyl-1-oxobutan-2-yl)dodecanediamide] | increase in acetylation to similar levels | 6.40 | 6.38 | 85 | 76 | 63 |  | pIC50 ([2]; LSD1-CoREST-HDAC1 complex in vitro): 4.77; pIC50 (NuRD): 6.38; pIC50 (MiDAC): 6.47; HDAC1 degradation (HDAC1 [3]; HCT116, 24 h, 1 μM): approximately 50%; HDAC1 level (DMSO control = 100%) (HDAC1 [3]; [9]): 40-48%; HDAC1 degradation (HDAC1 [3]; HCT116, 24 h, 10 μM): near complete degradation; HDAC2 degradation (HDAC2 [4]; HCT116, 24 h, 1 μM): approximately 50%; HDAC2 level (DMSO control = 100%) (HDAC2 [4]; [9]): 40-48%; HDAC2 degradation (HDAC2 [4]; HCT116, 24 h, 10 μM): near complete degradation; HDAC3 degradation (HDAC3; HCT116, 24 h, 1 μM): approximately 50%; HDAC3 level (DMSO control = 100%) (HDAC3; [9]): 40-48%; HDAC3 levels (HDAC3; HCT116, 24 h, 10 μM): decreased; H3K9 acetylation levels compared to DMSO control (H3K9ac): highly elevated; cell death [5]: significant cell death; HDAC1 levels (HDAC1 [6]): not recovered; HDAC2 levels (HDAC2 [7]): not recovered |
| Cc1ncsc1-c1ccc(CNC(=O)[C@@H]2C[C@@H](O)CN2C(=O)[C@@H](NC(=O)COCCCCCCCCC(=O)Nc2ccc(C(=O)Nc3ccccc3N)cc2)C(C)(C)C)cc1 [PROTAC13, (2S,4R)-1-((S)-2-(2-((9-((4-((2-aminophenyl)carbamoyl)phenyl)amino)-9-oxononyl)oxy)acetamido)-3,3-dimethylbutanoyl)-4-hydroxy-N-(4-(4-methylthiazol-5-yl)benzyl)pyrrolidine-2-carboxamide] |  | 6.07 | 6.46 | 58 | 52 | 69 |  | pIC50 (NuRD): 5.93; pIC50 (MiDAC): 5.84 |
| Cc1ncsc1-c1ccc(CNC(=O)[C@@H]2C[C@@H](O)CN2C(=O)[C@@H](NC(=O)CCCCCCCCCCC(=O)Nc2ccc(C(=O)Nc3ccc(F)cc3N)cc2)C(C)(C)C)cc1 [PROTAC17, N1-(4-((2-amino-4-fluorophenyl)carbamoyl)phenyl)-N12-((S)-1-((2S,4R)-4-hydroxy-2-((4-(4-methylthiazol-5-yl)benzyl)carbamoyl)pyrrolidin-1-yl)-3,3-dimethyl-1-oxobutan-2-yl)dodecanediamide] |  | 5.42 | 6.07 | 58 | 21 | 46 | partial |  |
| CN[C@@H](C)C(=O)N[C@H](C(=O)N1C[C@@H](NC(=O)COCCOCCOCC(=O)Nc2ccc(C(=O)Nc3ccccc3N)cc2)C[C@H]1C(=O)N[C@@H]1CCCc2ccccc21)C1CCCCC1 [PROTAC28, (2S,4S)-4-(2-(2-(2-(2-((4-((2-aminophenyl)carbamoyl)phenyl)amino)-2-oxoethoxy)ethoxy)ethoxy)acetamido)-1-((S)-2-cyclohexyl-2-((S)-2-(methylamino)propanamido)acetyl)-N-((R)-1,2,3,4-tetrahydronaphthalen-1-yl)pyrrolidine-2-carboxamide] |  |  |  |  |  | 57 | partial | HDAC1 Degrader (% Degradation) (HDAC1 [3]; [10]): No; HDAC 2 Degrader (% Degradation) (HDAC2 [4]; [10]): No |
| Cc1ncsc1-c1ccc(CNC(=O)[C@@H]2C[C@@H](O)CN2C(=O)[C@@H](NC(=O)COCCCCCCCCCOCC(=O)Nc2ccc(C(=O)Nc3ccc(F)cc3N)cc2)C(C)(C)C)cc1 [PROTAC20, (2S,4R)-1-((S)-2-(2-((9-(2-((4-((2-amino-4-fluorophenyl)carbamoyl)phenyl)amino)-2-oxoethoxy)nonyl)oxy)acetamido)-3,3-dimethylbutanoyl)-4-hydroxy-N-(4-(4-methylthiazol-5-yl)benzyl)pyrrolidine-2-carboxamide] |  |  |  | 51 | 26 | 67 | partial |  |
| Nc1ccccc1NC(=O)c1ccc(NC(=O)CCCCCCCCCCCNC(=O)COc2cccc3c2C(=O)N(C2CCC(=O)NC2=O)C3=O)cc1 (stereo not shown) [PROTAC2, N-(2-aminophenyl)-4-(12-(2-((2-(2,6-dioxopiperidin-3-yl)-1,3-dioxoisoindolin-4-yl)oxy)acetamido)dodecanamido)benzamide] | increase in acetylation to similar levels |  |  |  |  |  |  |  |
| CC(=O)Nc1ccc(C(=O)Nc2ccccc2NC(=O)OC(C)(C)C)cc1 [Compound 5, Tert-butyl (2-(4-acetamidobenzamido)phenyl)carbamate, reference compound] |  |  |  |  |  |  |  | HDAC inhibition ([2]; LSD1-CoREST-HDAC1 complex): no HDAC inhibition |

From patent US20230120211A1, “HDAC Degrader” (University of Leicester, priority 2020, published 2023)
